Measurements as given in patent US20250276955A1, “CORONAVIRUS MAIN PROTEASE INHIBITORS AND METHODS USING SAME” (Baylor College of Medicine, priority 2021, published 2025).

What was measured:
[1] = Metabolic stability in mouse liver microsomes; assay type: in vitro ADME
How it was run: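 Mouse or human liver microsomal incubations sampled in duplicate at 0, 30 and 60 min, quenched with equal volume ice-cold methanol. Supernatant analysed by UHPLC-Orbitrap MS, C18 column at 40° C, positive ESI, m/z 80–1,200.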

HepG2 cells = test: HepG2 cell uptake assay; assay type: in vitro ADME; settings: 10 μM, 2 hours
Description: The HepG2 cells maintained in DMEM (containing 1 g/L glucose, 10% fetal bovine serum and 1% penicillin/streptomycin) were seeded in a 12-well plate (a final density of 5×10^5/well) for cell uptake assay and 96-well plate for cytotoxicity assay (a final density of 5×10^4/well). The plate was incubated at 37° C. for 24 h.
The cells in 12-well plate were treated with CDD-1713 or CDD-1976 (final concentration: 10 μM). The plate was incubated at 37° C. for another 2 hr. The medium in the plate was decanted and the cells were rinsed with 1 mL of 1×DPBS for three times. 0.5 mL of 0.25% Trypsin was added into each well and incubated for 3.5 min (at 37° C.). 1 mL of complete medium was added into each well to quench the reaction. After spinning at 350×g for 5 min, the cell pellet was reconstituted in MeOH/H2O (v/v 1/1) and CDD-1713 or CDD-1976 was extracted from 100 μL of the resulting mixture with 100 μL of ice-cold methanol. The mixtures were centrifuged at rcf 15,000 for 15 min. Three μL of the supernatant was analyzed by UHPLC-Q Exactive Orbitrap MS (Thermo Fisher Scientific, USA) equipped with 50 mm×4.6 mm column (XDB C-18, Agilent Technologies, USA). The column temperature was set at 40° C. Ultra-pure nitrogen was applied as the sheath (45 arbitrary unit), auxiliary (10 arbitrary unit), sweep (1.0 arbitrary unit) and the collision gas. […]

COc1cc(-c2cccc3[nH]ncc23)cc(C=O)c1OCC(=O)N(C)C [CDD-1713, 2-(2-formyl-4-(1H-indazol-4-yl)-6-methoxyphenoxy)-N,N-dimethylacetamide]
MLM t1/2 ([1]; Table 4): 8.4 min | microsomal CLint at 2 μM ([1]; mouse, liver microsomes): 147 µL/min/mg | metabolic stability in mouse liver microsomes (in words) ([1]; mouse, microsomes): metabolically labile | cell permeability in HepG2 uptake assay (in words) (HepG2 cells): moderate cell permeability
